From patent US9718822B2, “Macrocyclic compounds as Trk kinase inhibitors” (Array BioPharma, Inc., priority 2010, dated 2017)
Like-named read-outs stand apart in the source and are kept apart here.

Legend:
[1] = biological target: histidine-tagged recombinant human TrkA, cytoplasmic domain (Homo sapiens (Human), UniProt P04629); experiment: TrkA ELISA Assay; type: biochemical; conditions: read-out: TrkA Elisa Enzyme Assay IC50; further: 2.5 nM TrkA
Method: An enzyme-linked immunosorbant assay (ELISA) was used to assess TrkA kinase activity in the presence of inhibitors. Immulon 4HBX 384-well microtiter plates (Thermo part #8755) were coated with a 0.025 mg/mL solution of poly (Glu, Ala, Tyr; 6:3:1; Sigma P3899). […] The assay buffer consisted of 25 mM MOPS pH 7.5, 0.005% (v/v) Triton X-100 and 5 mM MgCl2. The reaction mixture was removed from the plate by washing with PBS containing 0.1% (v/v) Tween 20. The phosphorylated reaction product was detected using 0.2 μg/mL of a phosphotyrosine specific monoclonal antibody (clone PY20) conjugated to horseradish peroxidase in conjunction with the TMB Peroxidase Substrate System (KPL). After the addition of 1M phosphoric acid, the chromogenic substrate color intensity was quantitated via absorbance at 450 nm. IC50 values were calculated using either a 4 or 5-parameter logistic curve fit.
Table 1 provides averaged IC50 values for compounds of the invention when tested in this assay.

[2] = biological target: His-tagged recombinant human TrkA (cytoplasmic domain) (Homo sapiens (Human), UniProt P04629); experiment: TrkA Binding Assay (LanthaScreen Eu Kinase Binding Assay)
Sequence of His-tagged recombinant human TrkA (cytoplasmic domain) (P04629 440-796): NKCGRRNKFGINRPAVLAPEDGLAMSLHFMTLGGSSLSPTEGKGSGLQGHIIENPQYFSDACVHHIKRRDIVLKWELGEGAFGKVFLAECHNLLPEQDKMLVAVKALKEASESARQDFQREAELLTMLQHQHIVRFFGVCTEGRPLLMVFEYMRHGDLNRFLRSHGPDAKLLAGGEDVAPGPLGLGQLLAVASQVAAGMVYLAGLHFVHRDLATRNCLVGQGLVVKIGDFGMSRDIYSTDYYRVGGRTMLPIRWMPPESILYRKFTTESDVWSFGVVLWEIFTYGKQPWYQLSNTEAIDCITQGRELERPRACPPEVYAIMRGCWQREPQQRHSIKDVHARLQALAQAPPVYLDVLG
Method: The ability of a compound to bind to TrkA was measured by Invitrogen's LanthaScreen™ Eu Kinase Binding Assay. […] After a 60-minute incubation at 22° C., the reaction was measured using the EnVision via TR-FRET dual wavelength detection, and the POC was calculated from the emission ratio. The compound dose response data was fit to a 4-parameter logistic model and IC50 was defined as the concentration of compound at 50 POC.

[3] = DMF

Sequence of histidine-tagged recombinant human TrkA, cytoplasmic domain (P04629 440-796): as above

IC50 [1] | IC50 [2] | SMILES | also measured
1 to 100 nM | 1 to 100 nM | O=C1NC[C@@H](O)COc2ncc(F)cc2[C@H]2CCCN2c2ccn3ncc1c3n2 [Example 7, (6R,15R)-9-fluoro-15-hydroxy-13-oxa-2,11,17,21,22,25-hexaazapentacyclo-[17.5.2.0^2,6.0^7,12.0^22,26]hexacosa-1(25),7,9,11,19(26),20,23-heptaen-18-one] | ring closure, yield of all isomers (from O=C(NC[C@@H](O)CCl)c1cnn2ccc(N3CCC[C@@H]3c3cc(F)c[nH]c3=O)nc12, ether bond, Cs2CO3, DMF, 98.6 mM, 85.0 °C, 1.0 h): 40%
1 to 100 nM | – | O=C1OCCOc2ncc(F)cc2[C@H]2CCCN2c2ccn3ncc1c3n2 [Example 14, (6R)-9-fluoro-13,16-dioxa-2,11,20,21,24-pentaazapentacyclo[16.5.2.0^2,6.0^7,12.0^21,25]pentacosa-1(24),7,9,11,18(25),19,22-heptaen-17-one] | ring closure, yield of all isomers (from O=C(OCCCl)c1cnn2ccc(N3CCC[C@@H]3c3cc(F)c[nH]c3=O)nc12, ether bond, Cs2CO3, DMF, 22.2 mM, 90.0 °C, 16.0 h): 31%
100 to 3000 nM | – | O=C1OCCn2cc(F)cc(c2=O)[C@H]2CCCN2c2ccn3ncc1c3n2 [Example 15, (6R)-9-fluoro-14-oxa-2,11,18,19,22-pentaazapentacyclo[14.5.2.1^7,11.0^2,6.0^19,23]tetracosa-1(22),7,9,16(23), 17,20-hexaene-15,24-dione] | ring closure, isolated yield ([3]; from O=C(OCCCl)c1cnn2ccc(N3CCC[C@@H]3c3cc(F)c[nH]c3=O)nc12, ether bond, 13-membered ring, Cs2CO3, 22.2 mM, 90.0 °C, 16.0 h): 22%
1 to 100 nM | 1 to 100 nM | O=C1NOCCOc2ncc(F)cc2[C@H]2CCCN2c2ccn3ncc1c3n2 [Example 16, (6R)-9-fluoro-13,16-dioxa-2,11,17,21,22,25-hexaazapentacyclo [17.5.2.0^2,6.0^7,12.0^22,26]hexacosa-1(25),7,9,11,19(26),20,23-heptaen-18-one] | ring closure, yield of all isomers (from O=C(NOCCCl)c1cnn2ccc(N3CCC[C@@H]3c3cc(F)c[nH]c3=O)nc12, ether bond, Cs2CO3, DMF, 100.0 mM, 90.0 °C, […]): 1%
1 to 100 nM | 1 to 100 nM | CN1CCCOc2ncc(F)cc2[C@H]2CCCN2c2ccn3ncc(c3n2)C1=O [Example 18, (6R)-9-fluoro-17-methyl-13-oxa-2,11,17,21,22,25-hexaazapentacyclo[17.5.2.0^2,6.0^7,12.0^22,26]hexacosa-1(25),7,9,11,19(26),20,23-heptaen-18-one] | ring closure, yield of all isomers (from CN(CCCCl)C(=O)c1cnn2ccc(N3CCC[C@@H]3c3cc(F)c[nH]c3=O)nc12, ether bond, Cs2CO3, DMF, 10.0 mM, 90.0 °C, 0.25 h): 36%
1 to 100 nM | – | O=C1NCCCOc2ncc(F)cc2[C@H]2COC(=O)N2c2ccn3ncc1c3n2 [Example 30, (6S)-9-fluoro-4,13-dioxa-2,11,17,21,22,25-hexaazapentacyclo [17.5.2.0^2,6.0^7,12.0^22,26]hexacosa-1(25),7(12),8,10,19(26),20,23-heptaene-3,18-dione] | ring closure, yield of all isomers (from O=C(NCCCCl)c1cnn2ccc(N3C(=O)OC[C@@H]3c3cc(F)c[nH]c3=O)nc12, ether bond, Cs2CO3, DMF, 26.7 mM, 65.0 °C, 48.5 h): 41%
100 to 3000 nM | 100 to 3000 nM | O=C1NCCOc2ncc(F)cc2[C@H]2COC(=O)N2c2ccn3ncc1c3n2 [Example 31, (6S)-9-fluoro-4,13-dioxa-2,11,16,20,21,24-hexaazapentacyclo [16.5.2.0^2,6.0^7,12.0^21,25]pentacosa-1(24),7(12),8,10,18(25),19,22-heptaene-3,17-dione] | –
– | 1 to 100 nM | O=C1NCCCc2ncc(F)cc2[C@H]2CCCN2c2ccn3ncc1c3n2 [Example 32, (6R)-9-fluoro-2,11,16,20,21,24-hexaazapentacyclo[16.5.2.0^2,6.0^7,12.0^21,25]pentacosa-1(24),7,9,11,18(25),19,22-heptaen-17-one] | ring closure, yield of all isomers (from NCCCc1ncc(F)cc1[C@H]1CCCN1c1ccn2ncc(C(=O)O)c2n1, amide bond, HATU, DMF, 8.4 mM, 3.0 h): 39%
– | 1 to 100 nM | CC1(C)CCc2ncc(F)cc2[C@H]2CCCN2c2ccn3ncc(c3n2)C(=O)N1 [Example 37] | ring closure, yield of all isomers (from COC(=O)c1cnn2ccc(N3CCC[C@@H]3c3cc(F)cnc3CCC(C)(C)NC(=O)OC(C)(C)C)nc12, amide bond, EDCI/HOBt/Et3N, DMF, 39.4 mM, 45.0 °C, 18.0 h, 3 steps): 48.3%
– | 1 to 100 nM | O=C1Nc2ncccc2COc2ncc(F)cc2[C@H]2CCCN2c2ccn3ncc1c3n2 [Example 39, (6R)-9-fluoro-13-oxa-2,11,19,21,25,26,29-heptaazahexacyclo [21.5.2.0^2,6.0^7,12.0^15,20.0^26,30]triaconta-1(29),7,9,11,15(20),16,18,23(30),24,27-decaen-22-one] | ring closure, yield of all isomers (from O=C(Nc1ncccc1CCl)c1cnn2ccc(N3CCC[C@@H]3c3cc(F)cnc3O)nc12, ether bond, Cs2CO3, DMF, 84.8 mM, 60.0 °C, 4.0 h, 4 steps): 2.2%
– | 1 to 100 nM | O=C1NC[C@H](O)COc2ccc(F)cc2[C@H]2C[C@@H](O)CN2c2ccn3ncc1c3n2 [Example 41, (4R,6R,15S)-9-fluoro-4,15-dihydroxy-13-oxa-2,17,21,22,25-pentaazapentacyclo [17.5.2.0^2,6.0^7,12.0^22,26]hexacosa-1(25),7(12),8,10,19(26),20,23-heptaen-18-one] | ring closure, yield of all isomers (from O=C(NC[C@H](O)CCl)c1cnn2ccc(N3C[C@H](O)CC3c3cc(F)ccc3O)nc12, ether bond, Cs2CO3, DMF, 21.6 mM, 85.0 °C, 0.5 h): 16.2%

Continued, molecule first:

SMILES | IC50 [1] | IC50 [2] | also measured
O=C1NC[C@H](O)COc2ccc(F)cc2C2CC(F)(F)CN2c2ccn3ncc1c3n2 (stereo partly drawn) | – | – | ring closure, yield of all isomers (from O=C(NC[C@H](O)CCl)c1cnn2ccc(N3CC(F)(F)CC3c3cc(F)ccc3O)nc12, ether bond, Cs2CO3, DMF, 20.0 mM, 85.0 °C, 0.5 h): 44%
O=C1NCCCOc2ncc(F)cc2[C@H]2CCCN2c2ccn3ncc1c3n2 [Example 3, (6R)-9-fluoro-13-oxa-2,11,17,21,22,25-hexaazapentacyclo[17.5.2.0^2,6.0^7,12.0^22,26]hexacosa-1(25),7,9,11,19(26),20,23-heptaen-18-one] | 1 to 100 nM | 1 to 100 nM | ring closure, yield of all isomers (from O=C(NCCCCl)c1cnn2ccc(N3CCC[C@@H]3c3cc(F)cnc3O)nc12, ether bond, Cs2CO3, DMF, […], 85.0 °C, 16.0 h): 44%
O=C1NCCOc2ncc(F)cc2[C@H]2CCCN2c2ccn3ncc1c3n2 [Example 9, (6R)-9-fluoro-13-oxa-2,11,16,20,21,24-hexaazapentacyclo[16.5.2.0^2,6.0^7,12.0^21,25]pentacosa-1(24),7,9,11,18(25),19,22-heptaen-17-one] | – | – | IC50 ([1]; averaged IC50 values, […] TrkA, 500 μM ATP, 25 minutes at ambient temperature): 1 to 100 nM; ring closure, yield of all isomers (from O=C(NCCCl)c1cnn2ccc(N3CCC[C@@H]3c3cc(F)c[nH]c3=O)nc12, ether bond, Cs2CO3, DMF, […], 85.0 °C, 0.5 h): 24%; IC50 ([2]; averaged IC50 values, TR-FRET, 60-minute incubation at 22° C., 2% DMSO final): 1 to 100 nM
O=C1NCCCOc2ccc(F)cc2[C@H]2CCCN2c2ccn3ncc1c3n2 [Example 20, (6R)-9-fluoro-13-oxa-2,17,21,22,25-pentaazapentacyclo[17.5.2.0^2,6.0^7,12.0^22,26]hexacosa-1(25),7,9,11,19(26),20,23-heptaen-18-one] | 1 to 100 nM | 1 to 100 nM | ring closure, yield of all isomers (from CCOC(=O)c1cnn2ccc(N3CCC[C@@H]3c3cc(F)ccc3OCCCN)nc12, amide bond, DIEA, EtOH, 230.0 mM, 200.0 °C): 50%
O=C(CO)N1CCOc2ccc(F)cc2[C@H]2CCCN2c2ccn3ncc(c3n2)C1 [Example 23, 1-[(6R)-9-fluoro-13-oxa-2,16,20,21,24-pentaazapentacyclo[16.5.2.0^2,6.0^7,12.0^21,25]pentacosa-1(24),7,9,11,18(25),19,22-heptaen-16-yl]-2-hydroxyethan-1-one] | 1 to 100 nM | 1 to 100 nM | –
O=C(O)CN1CCOc2ccc(F)cc2[C@H]2CCCN2c2ccn3ncc(c3n2)C1 [Example 26, 2-[(6R)-9-fluoro-13-oxa-2,16,20,21,24-pentaazapentacyclo[16.5.2.0^2,6.0^7,12.0^21,25]pentacosa-1(24),7,9,11,18(25),19,22-heptaen-16-yl]acetic acid] | 100 to 3000 nM | 100 to 3000 nM | –
C[C@@H]1CNC(=O)c2cnn3ccc(nc23)N2CCC[C@@H]2c2cc(F)cn(c2=O)C1 [Example 34, (6R,13R)-9-fluoro-13-methyl-2,11,15,19,20,23-hexaazapentacyclo [15.5.2.1^7,11.0^2,6.0^20,24]pentacosa-1(23),7,9,17(24),18,21-hexaene-16,25-dione] | – | 1 to 100 nM | ring closure, yield of all isomers (from COC(=O)c1cnn2ccc(N3CCC[C@@H]3c3cc(F)cn(C[C@H](C)CN)c3=O)nc12, amide bond, HATU, DMF, […], 3.0 h, 2 steps): 10%; ring closure, isolated yield ([3]; from C[C@H](CN)Cn1cc(F)cc([C@H]2CCCN2c2ccn3ncc(C(=O)O)c3n2)c1=O, amide bond, 14-membered ring, HATU/DIEA, […], 3.0 h, 2 steps): 10%
